Experimental data: patent US20240217957A1, “HETEROCYCLIC COMPOUND AND USE THEREOF” (TAKEDA PHARMACEUTICAL COMPANY LIMITED, priority 2022, published 2024)

target: T1, human OX2 receptor (Homo sapiens, UniProt O43614); test: Measurement of orexin type 2 receptor agonist activity (calcium fluorescence, Fluo-4 AM, FDSS); type: cell-based; conditions: compound at 3 μM; CHO cells forcibly expressing human OX2 receptor; DMSO = 0%, 10 nM orexin A (human) = 100%
T1 construct: expressed in transfected cells
T1 sequence (O43614 1-444): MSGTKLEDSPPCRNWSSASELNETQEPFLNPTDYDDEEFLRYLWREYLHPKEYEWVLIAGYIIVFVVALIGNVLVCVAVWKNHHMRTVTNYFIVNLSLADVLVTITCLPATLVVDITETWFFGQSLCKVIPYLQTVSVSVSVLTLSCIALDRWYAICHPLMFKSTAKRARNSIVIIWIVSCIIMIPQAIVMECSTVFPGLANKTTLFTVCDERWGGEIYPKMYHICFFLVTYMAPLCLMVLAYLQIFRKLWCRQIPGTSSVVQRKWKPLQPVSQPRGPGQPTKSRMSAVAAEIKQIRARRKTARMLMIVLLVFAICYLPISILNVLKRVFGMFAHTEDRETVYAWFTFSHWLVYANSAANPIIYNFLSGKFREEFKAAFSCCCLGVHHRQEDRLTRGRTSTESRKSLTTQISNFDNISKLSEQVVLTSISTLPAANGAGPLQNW
Procedure: In order to obtain cell clones that stably express human orexin type 2 receptor, human orexin type 2 (residues 1-444, NCBI Reference Sequence: AK314279) was constructed in a pcDNA3.1 (+) vector (Invitrogen) to express in mammalian cells. This plasmid DNA was transfected into CHO-K1 cells by electroporation, and stable clones were obtained by limiting dilution using resistance to G418 as a selection marker.
CHO cells in which human OX2 receptor was forcibly expressed were seeded at 10,000 cells/well into a 384-well black transparent bottom plate (BD falcon), and were incubated at 37° C., 5% CO2 for 1 day after incubation at room temperature for 30 minutes. After removing the cell plate medium, assay buffer containing calcium indicator A (HBSS (Thermo Fisher Scientific), 20 mM HEPES (Thermo Fisher Scientific), 0.1% BSA (Sigma-Aldrich), 2.5 μg/mL Fluo-4 AM (Dojin Kagaku), 0.08% Pluronic F127 (Dojin Kagaku), 1.25 mM probenecid (Dojin Kagaku)) was added at 30 μL/well. After incubation in a 5% CO2 incubator at 37° C. for 30 minutes, it was incubated at room temperature for another 30 minutes. Add 10 μL/well of the test compound diluted with assay buffer B (HBSS, 20 mM HEPES, 0.1% BSA), and use FDSS uCELL (Hamamatsu Photonics) to measure the fluorescence value every 1 second for 1 minute, and then every 2 seconds for […]. It was measured for 1 minute and 40 seconds. The amount of fluorescence value when DMSO is added instead of the test compound is defined as 0%, and the amount of fluorescence value when orexin A (human) (Peptide Institute) with a final concentration of 10 nM is added is defined as 100%. The activity (%) of the test compound was calculated.

Compound | OX2R agonist activity (3 μM, %)
Cc1cnc(C2(C)CC(N3C[C@@H](NS(C)(=O)=O)C(F)(F)C3)=NO2)c(-c2c(F)cc(F)cc2F)c1 (stereo partly drawn) [Example 10, N-[(3R)-4,4-difluoro-1-{5-methyl-5-[5-methyl-3-(2,4,6-trifluorophenyl)pyridin-2-yl]-4,5-dihydro-1,2-oxazol-3-yl}pyrrolidin-3-yl]methanesulfonamide] | 102%
Cc1cn(-c2c(F)cccc2F)c(C2(C)CC(N3C[C@@H](NS(C)(=O)=O)C(F)(F)C3)=NO2)n1 (stereo partly drawn) [Example 12, N-[(3R)-1-{5-[1-(2,6-difluorophenyl)-4-methyl-1H-imidazol-2-yl]-5-methyl-4,5-dihydro-1,2-oxazol-3-yl}-4,4-difluoropyrrolidin-3-yl]methanesulfonamide] | 71%
CCS(=O)(=O)N[C@@H]1CN(C2=NOC(c3ncc(C)cc3-c3c(F)cc(F)cc3F)(C(F)F)C2)CC1(F)F (stereo partly drawn) [Example 13, N-[(3R)-1-{5-(difluoromethyl)-5-[5-methyl-3-(2,4,6-trifluorophenyl)pyridin-2-yl]-4,5-dihydro-1,2-oxazol-3-yl}-4,4-difluoropyrrolidin-3-yl]ethanesulfonamide] | 107%
Cc1cnc(C2(C(F)F)CC(N3C[C@@H](NS(C)(=O)=O)C(F)(F)C3)=NO2)c(-c2c(F)cc(F)cc2F)c1 (stereo partly drawn) [Example 14, N-[(3R)-1-{5-(difluoromethyl)-5-[5-methyl-3-(2,4,6-trifluorophenyl)pyridin-2-yl]-4,5-dihydro-1,2-oxazol-3-yl}-4,4-difluoropyrrolidin-3-yl]methanesulfonamide] | 106%
CS(=O)(=O)N[C@@H]1CN(C2=NOC(CO)(c3ncc(F)cc3-c3c(F)cc(F)cc3F)C2)CC1(F)F (stereo partly drawn) [Example 15, N-[(3R)-4,4-difluoro-1-{5-[5-fluoro-3-(2,4,6-trifluorophenyl)pyridin-2-yl]-5-(hydroxymethyl)-4,5-dihydro-1,2-oxazol-3-yl}pyrrolidin-3-yl]methanesulfonamide] | 92%
Cc1cnc(C2(CO)CC(N3C[C@@H](NS(C)(=O)=O)C(F)(F)C3)=NO2)c(-c2c(F)cc(F)cc2F)c1 (stereo partly drawn) [Example 16, N-[(3R)-4,4-difluoro-1-{5-(hydroxymethyl)-5-[5-methyl-3-(2,4,6-trifluorophenyl)pyridin-2-yl]-4,5-dihydro-1,2-oxazol-3-yl}pyrrolidin-3-yl]methanesulfonamide] | 99%
Cc1cnc(C2CC(N3CC(F)(F)C3CNS(C)(=O)=O)=NO2)c(-c2c(F)cc(F)cc2F)c1 (stereo not shown) [Example 17, N-[(3,3-difluoro-1-{5-[5-methyl-3-(2,4,6-trifluorophenyl)pyridin-2-yl]-4,5-dihydro-1,2-oxazol-3-yl}azetidin-2-yl)methyl]methanesulfonamide] | 80%
CS(=O)(=O)N[C@@H]1CN(C2=NOC(c3ncc(C4CC4)cc3-c3c(F)cc(F)cc3F)C2)CC1(F)F (stereo partly drawn) [Example 18, N-[(3R)-1-{5-[5-cyclopropyl-3-(2,4,6-trifluorophenyl)pyridin-2-yl]-4,5-dihydro-1,2-oxazol-3-yl}-4,4-difluoropyrrolidin-3-yl]methanesulfonamide] | 103%
Cc1cnc(C2CC([C@@H]3CC[C@H](NS(C)(=O)=O)C3)=NO2)c(-c2c(F)cc(F)cc2F)c1 (stereo partly drawn) [Example 19, N-[(1S,3R)-3-{5-[5-methyl-3-(2,4,6-trifluorophenyl)pyridin-2-yl]-4,5-dihydro-1,2-oxazol-3-yl}cyclopentyl]methanesulfonamide] | 92%

Next, values leading:

OX2R agonist activity (3 μM, %) | Compound
65% | Cc1cnc(C2CC(O[C@H]3C[C@@H](NS(C)(=O)=O)C3)=NO2)c(-c2c(F)cccc2F)c1 (stereo partly shown) [Example 20, N-[(1s,3s)-3-({5-[3-(2,6-difluorophenyl)-5-methylpyridin-2-yl]-4,5-dihydro-1,2-oxazol-3-yl}oxy)cyclobutyl]methanesulfonamide]
100% | Cc1cnc(C2CC(N3C[C@@H](NS(C)(=O)=O)C(F)(F)C3)=NO2)c(-c2c(F)cccc2F)c1 (stereo partly drawn) [Example 21, N-[(3R)-1-{5-[3-(2,6-difluorophenyl)-5-methylpyridin-2-yl]-4,5-dihydro-1,2-oxazol-3-yl}-4,4-difluoropyrrolidin-3-yl]methanesulfonamide]
102% | CCS(=O)(=O)N[C@@H]1CN(C2=NO[C@H](c3ncc(C)cc3-c3c(F)cccc3F)C2)CC1(F)F [Example 22, N-[(3R)-1-{(5S)-5-[3-(2,6-difluorophenyl)-5-methylpyridin-2-yl]-4,5-dihydro-1,2-oxazol-3-yl}-4,4-difluoropyrrolidin-3-yl]ethanesulfonamide]
42% | Cc1cnc(C2CC(C3CC(NS(C)(=O)=O)C3)=NO2)c(-c2c(F)cc(F)cc2F)c1 (stereo not shown) [Example 23, N-[(1s,3s)-3-{5-[5-methyl-3-(2,4,6-trifluorophenyl)pyridin-2-yl]-4,5-dihydro-1,2-oxazol-3-yl}cyclobutyl]methanesulfonamide]
20% | Cc1cnc(C2CC([C@H]3CC[C@@H](NS(C)(=O)=O)CC3)=NO2)c(-c2c(F)cc(F)cc2F)c1 (stereo partly shown) [Example 24, N-[(1s,4s)-4-{5-[5-methyl-3-(2,4,6-trifluorophenyl)pyridin-2-yl]-4,5-dihydro-1,2-oxazol-3-yl}cyclohexyl]methanesulfonamide]
88% | Cc1cnc(C2CC([C@H]3CC[C@H](NS(C)(=O)=O)C3)=NO2)c(-c2c(F)cc(F)cc2F)c1 (stereo partly drawn) [Example 25, N-[(1S,3S)-3-{5-[5-methyl-3-(2,4,6-trifluorophenyl)pyridin-2-yl]-4,5-dihydro-1,2-oxazol-3-yl}cyclopentyl]methanesulfonamide]
42% | CCS(=O)(=O)NC[C@@H]1CCCN1C1=NOC(c2ncc(C)cc2-c2c(F)cccc2F)C1 (stereo partly drawn) [Example 26, N-{[(2S)-1-{5-[3-(2,6-difluorophenyl)-5-methylpyridin-2-yl]-4,5-dihydro-1,2-oxazol-3-yl}pyrrolidin-2-yl]methyl}ethanesulfonamide]
77% | Cc1cnc(C2CC(N(C)[C@H]3C[C@@H](NS(C)(=O)=O)C3)=NO2)c(-c2c(F)cccc2F)c1 (stereo partly shown) [Example 27, N-{(1s,3s)-3-[{5-[3-(2,6-difluorophenyl)-5-methylpyridin-2-yl]-4,5-dihydro-1,2-oxazol-3-yl}(methyl)amino]cyclobutyl}methanesulfonamide]
93% | Cc1cnc(C2CC(N3CC[C@@H](NS(C)(=O)=O)C(F)(F)CC3)=NO2)c(-c2c(F)cccc2F)c1 (stereo partly drawn) [Example 28, N-[(4R)-1-{5-[3-(2,6-difluorophenyl)-5-methylpyridin-2-yl]-4,5-dihydro-1,2-oxazol-3-yl}-5,5-difluoroazepan-4-yl]methanesulfonamide]
96% | Cc1cnc([C@@H]2CC(N3CC[C@H](NS(C)(=O)=O)C3)=NO2)c(-c2c(F)cccc2F)c1 [Example 29, N-[(3S)-1-{(5S)-5-[3-(2,6-difluorophenyl)-5-methylpyridin-2-yl]-4,5-dihydro-1,2-oxazol-3-yl}pyrrolidin-3-yl]methanesulfonamide]
104% | Cc1cnc([C@@H]2CC(N3CC[C@H](NS(=O)(=O)C4(F)CC4)C3)=NO2)c(-c2c(F)cccc2F)c1 [Example 30, N-[(3S)-1-{(5S)-5-[3-(2,6-difluorophenyl)-5-methylpyridin-2-yl]-4,5-dihydro-1,2-oxazol-3-yl}pyrrolidin-3-yl]-1-fluorocyclopropane-1-sulfonamide]
104% | Cc1cnc([C@@H]2CC(N3C[C@@H](NS(=O)(=O)C(F)F)C(F)(F)C3)=NO2)c(-c2c(F)cccc2F)c1 [Example 31, N-[(3R)-1-{(5S)-5-[3-(2,6-difluorophenyl)-5-methylpyridin-2-yl]-4,5-dihydro-1,2-oxazol-3-yl}-4,4-difluoropyrrolidin-3-yl]-1,1-difluoromethanesulfonamide]
98% | Cc1cnc([C@@H]2CC(N3C[C@H](F)[C@H](NS(C)(=O)=O)C3)=NO2)c(-c2c(F)cccc2F)c1 [Example 32, N-[(3R,4S)-1-{(5S)-5-[3-(2,6-difluorophenyl)-5-methylpyridin-2-yl]-4,5-dihydro-1,2-oxazol-3-yl}-4-fluoropyrrolidin-3-yl]methanesulfonamide]
